Key:
[1] = biological target: T1, human recombinant adrenergic α1D receptor (Homo sapiens, UniProt P25100); assay: Radioligand binding, adrenergic α1D receptor ([3H]Prazosin); conditions: 0.1 μM compound; HEK-293 cells; 0.6 nM [3H]Prazosin; read-out: Percentage inhibition of ligand binding, Adrenergic α1D
T1 construct: expressed in transfected cells; host or cells: HEK-293
T1 sequence (P25100 1-572): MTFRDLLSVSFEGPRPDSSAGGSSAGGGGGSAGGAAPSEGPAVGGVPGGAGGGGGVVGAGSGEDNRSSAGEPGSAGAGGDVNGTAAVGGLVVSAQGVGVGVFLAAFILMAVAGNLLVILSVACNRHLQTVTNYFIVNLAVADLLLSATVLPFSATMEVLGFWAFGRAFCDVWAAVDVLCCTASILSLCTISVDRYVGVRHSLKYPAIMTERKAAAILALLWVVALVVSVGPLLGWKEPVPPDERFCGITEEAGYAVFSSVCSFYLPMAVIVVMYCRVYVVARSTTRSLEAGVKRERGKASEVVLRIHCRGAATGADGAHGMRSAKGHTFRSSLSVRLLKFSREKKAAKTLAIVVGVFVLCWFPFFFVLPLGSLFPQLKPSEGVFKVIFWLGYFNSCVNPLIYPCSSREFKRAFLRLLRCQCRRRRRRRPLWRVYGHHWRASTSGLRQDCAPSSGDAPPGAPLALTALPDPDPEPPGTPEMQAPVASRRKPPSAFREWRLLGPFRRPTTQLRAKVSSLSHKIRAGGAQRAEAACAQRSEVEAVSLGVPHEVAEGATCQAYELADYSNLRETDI
Method: Compounds were incubated with 0.6 nM [3H]Prazosin for 60 min at 25° C. Non-specific binding was estimated in the presence of 10 μM phentolamine. Receptor proteins were filtered and washed, the filters were then counted to determine [3H]Prazosin specifically bound. Compounds were screened at 1 μM or lower, using 1% DMSO as vehicle. Biochemical assay results are presented as the percent inhibition of specific binding in Table 2.

[2] = biological target: T2, human recombinant adrenergic α2B receptor (Homo sapiens, UniProt P18089); assay: Radioligand binding, adrenergic α2B receptor ([3H]Rauwolscine); conditions: 0.1 μM compound, CHO-K1 cells, read-out: Percentage inhibition of ligand binding, Adrenergic α2B
T2 construct: expressed in transfected cells; host or cells: CHO-K1
T2 sequence (P18089 1-450): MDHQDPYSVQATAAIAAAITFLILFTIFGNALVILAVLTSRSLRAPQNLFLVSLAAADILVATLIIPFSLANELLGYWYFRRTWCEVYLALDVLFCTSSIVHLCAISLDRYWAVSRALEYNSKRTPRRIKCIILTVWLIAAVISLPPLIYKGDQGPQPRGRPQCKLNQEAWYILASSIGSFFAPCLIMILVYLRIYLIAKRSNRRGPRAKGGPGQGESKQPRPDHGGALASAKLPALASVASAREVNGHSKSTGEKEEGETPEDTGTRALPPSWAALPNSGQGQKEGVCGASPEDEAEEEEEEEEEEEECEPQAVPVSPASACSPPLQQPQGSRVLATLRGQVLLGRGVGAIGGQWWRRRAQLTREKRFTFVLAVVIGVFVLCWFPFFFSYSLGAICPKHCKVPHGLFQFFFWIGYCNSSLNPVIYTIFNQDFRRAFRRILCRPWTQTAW
In short: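 Percent inhibition of specific [3H]Rauwolscine (2.5 nM) binding, compounds at ≤1 μM, 1% DMSO vehicle, 10 μM prazosin defining nonspecific. Receptor: human α2B expressed in CHO-K1 cells, 60 min incubation at 25 °C in Tris-HCl pH 7.4 buffer (MgCl2, EDTA, BSA); filtered, washed, counted.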

[3] = biological target: T3, rat adrenergic α1B receptor (Rattus norvegicus, UniProt P15823); assay: Radioligand binding, adrenergic α1B receptor ([3H]Prazosin); conditions: 0.1 μM compound, Wistar rat liver, read-out: Percentage inhibition of ligand binding, Adrenergic α1B
T3 construct: rat adrenergic α1B receptor obtained from Wistar Rat liver; from tissue; host or cells: Wistar rat liver
T3 sequence (P15823 1-515): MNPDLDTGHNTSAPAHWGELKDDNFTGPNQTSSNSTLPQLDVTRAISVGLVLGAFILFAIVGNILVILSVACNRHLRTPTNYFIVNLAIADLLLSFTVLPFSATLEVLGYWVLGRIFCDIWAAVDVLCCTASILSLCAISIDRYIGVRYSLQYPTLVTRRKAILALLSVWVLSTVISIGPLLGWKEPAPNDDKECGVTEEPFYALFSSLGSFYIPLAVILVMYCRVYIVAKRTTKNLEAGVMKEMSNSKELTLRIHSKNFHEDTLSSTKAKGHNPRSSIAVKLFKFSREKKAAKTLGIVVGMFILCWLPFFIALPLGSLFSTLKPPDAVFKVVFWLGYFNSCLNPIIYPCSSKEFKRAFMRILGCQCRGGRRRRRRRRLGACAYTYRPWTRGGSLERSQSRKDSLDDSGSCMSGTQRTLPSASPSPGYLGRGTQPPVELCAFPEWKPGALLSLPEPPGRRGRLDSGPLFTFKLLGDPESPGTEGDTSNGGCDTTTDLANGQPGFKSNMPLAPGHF
In short: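 Wistar rat liver α1B receptor preparation incubated with 0.25 nM [3H]prazosin and compound for 60 min at 25° C in 50 mM Tris-HCl pH 7.4, 0.5 mM EDTA; nonspecific binding defined with 10 μM phentolamine.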

[4] = biological target: T4, human recombinant adrenergic α2A receptor (Homo sapiens, UniProt P08913); assay: Radioligand binding, adrenergic α2A receptor ([3H]MK-912); conditions: 0.1 μM compound; Sf9 cells; 1 nM [3H]MK-912; read-out: Percentage inhibition of ligand binding, Adrenergic α2A
T4 construct: expressed in transfected cells; host or cells: insect Sf9 cells
T4 sequence (P08913 1-465): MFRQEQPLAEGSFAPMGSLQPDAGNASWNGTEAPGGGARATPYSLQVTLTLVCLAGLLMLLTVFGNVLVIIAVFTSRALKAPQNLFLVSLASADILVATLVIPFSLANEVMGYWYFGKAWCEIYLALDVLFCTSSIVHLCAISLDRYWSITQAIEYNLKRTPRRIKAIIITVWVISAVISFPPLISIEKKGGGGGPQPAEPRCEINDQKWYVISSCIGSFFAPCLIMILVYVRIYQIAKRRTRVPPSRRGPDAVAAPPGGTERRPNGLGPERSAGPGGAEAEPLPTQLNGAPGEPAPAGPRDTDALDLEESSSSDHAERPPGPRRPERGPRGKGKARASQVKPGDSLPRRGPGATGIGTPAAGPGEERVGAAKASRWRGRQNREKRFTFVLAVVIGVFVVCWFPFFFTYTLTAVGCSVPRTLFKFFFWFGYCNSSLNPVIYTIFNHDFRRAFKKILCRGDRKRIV
In short: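 Percent inhibition of specific [3H]MK-912 (1 nM) binding measured by filtration counting, compounds tested at ≤1 μM in 1% DMSO. Receptor: human α2A from Sf9 cells; incubation 60 min, 25 °C, pH 7.4; 10 μM WB-4101 defined nonspecific binding.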

inhibition at 0.1 µM [1] | inhibition at 0.1 µM [2] | inhibition at 0.1 µM [3] | inhibition at 0.1 µM [4] | SMILES
9% | 19% | 18% | 34% | Cc1ccc2c(c1)c1c(n2-c2cccc(-c3cn[nH]c3)c2)CCN(C)C1 [Compound No. 70, 5-(3-(1H-pyrazol-4-yl)phenyl)-2,8-dimethyl-2,3,4,5-tetrahydro-1H-pyrido[4,3-b]indole]
64% | 99% | 59% | 56% | Cc1ccc2c(c1)c1c(n2-c2ccc(-c3cncc4ccccc34)cn2)CCN(C)C1 [Compound No. 135, 5-(5-(isoquinolin-4-yl)pyridin-2-yl)-2,8-dimethyl-2,3,4,5-tetrahydro-1H-pyrido[4,3-b]indole]
79% | 89% | 43% | 91% | Cc1ccc2c(c1)c1c(n2-c2cscc2-c2cnc(N(C)C)nc2)CCN(C)C1 [Compound 40]
2% | 12% | 0% | 29% | Cc1ccc2c(c1)c1c(n2-c2cccc(-c3ccc(F)nc3)c2)CCN(C)C1 [Compound 44, 5-(3-(6-fluoropyridin-3-yl)phenyl)-2,8-dimethyl-2,3,4,5-tetrahydro-1H-pyrido[4,3-b]indole]
59% | 105% | 70% | 59% | Cc1ccc2c(c1)c1c(n2-c2ccc(-c3ccc4c(ccn4C)c3)cn2)CCN(C)C1 [Compound No. 136, 2,8-dimethyl-5-(5-(1-methyl-1H-indol-5-yl)pyridin-2-yl)-2,3,4,5-tetrahydro-1H-pyrido[4,3-b]indole]
21% | 86% | 8% | 63% | CNC(=O)c1cc(-n2c3c(c4cc(C)ccc42)CN(C)CC3)cs1 [Compound No. 78]
36% | 95% | 37% | 88% | Cc1ccc2c(c1)c1c(n2-c2ccccc2-c2ccc(C)s2)CCN(C)C1 [Compound No. 81, 2,8-dimethyl-5-(2-(5-methylthiophen-2-yl)phenyl)-2,3,4,5-tetrahydro-1H-pyrido[4,3-b]indole]
14% | 31% | 12% | -3% | Cc1ccc2c(c1)c1c(n2-c2cscc2-c2ccc(O)nc2)CCN(C)C1 [Compound 49]
5% | 11% | 2% | 30% | Cc1csc(-c2cccc(-n3c4c(c5cc(C)ccc53)CN(C)CC4)c2)c1 [Compound No. 63, 2,8-dimethyl-5-(3-(4-methylthiophen-2-yl)phenyl)-2,3,4,5-tetrahydro-1H-pyrido[4,3-b]indole]
18% | 19% | 32% | 67% | Cc1ccc2c(c1)c1c(n2-c2cscc2-c2c(C)noc2C)CCN(C)C1 [Compound No. 62]
-3% | 36% | 6% | 43% | Cc1ccc2c(c1)c1c(n2-c2cccc(-c3ccc(O)nc3)c2)CCN(C)C1 [Compound 52, 5-(3-(2,8-dimethyl-3,4-dihydro-1H-pyrido[4,3-b]indol-5(2H)-yl)phenyl)pyridin-2-ol]
-5% | 16% | 1% | 19% | Cc1cc(C)c2c(c1)c1c(n2-c2ccc3ncccc3c2)CCN(C)C1 [Compound 48]
32% | 57% | 31% | 32% | Cc1ccc2c(c1)c1c(n2-c2ccc3cnccc3c2)CCN(C)C1 [Compound 38]
8% | 21% | -7% | 48% | Cc1ccc2c(c1)c1c(n2-c2cccc(-c3cnn(C)c3)c2)CCN(C)C1 [Compound 46, 2,8-dimethyl-5-(3-(1-methyl-1H-pyrazol-4-yl)phenyl)-2,3,4,5-tetrahydro-1H-pyrido[4,3-b]indole]
8% | 14% | 16% | -6% | Cc1cc(C)c2c(c1)c1c(n2-c2cscc2-c2ccncc2)CCN(C)C1 [Compound No. 149]
23% | 27% | 9% | 12% | Cc1ccc2c(c1)c1c(n2-c2ccccc2-c2ccc(O)nc2)CCN(C)C1 [Compound No. 80, 5-(2-(2,8-dimethyl-3,4-dihydro-1H-pyrido[4,3-b]indol-5(2H)-yl)phenyl)pyridin-2-ol]
67% | 99% | 59% | 96% | Cc1ccc2c(c1)c1c(n2-c2cscc2-c2cc3ccccc3s2)CCN(C)C1 [Compound No. 151]
3% | 6% | 9% | 31% | Cc1ccc2c(c1)c1c(n2-c2cccc(-c3sccc3C)c2)CCN(C)C1 [Compound 43, 2,8-dimethyl-5-(3-(3-methylthiophen-2-yl)phenyl)-2,3,4,5-tetrahydro-1H-pyrido[4,3-b]indole]
